Laboratory results as given in patent publication US4791133A, “Phenylene, furyl, and thienyl leukotriene B4 analogues” (G. D. Searle & Co., priority 1987, dated 1988).
pIC50: −log10 of the molar value. “And” between values parts separate entries of the source, which are not always exact repeats. Identical values can stand only once. Counter-ions that a name gives are not always drawn.

Tests used:
[1] = tested on: LTB4 induced neutrophil degranulation; test: Human Neutrophil Degranulation Assay (LTB4 induced myeloperoxidase release); assay type: cell-based; conditions: LTB4 5×10^-8 M, cytochalasin B, human neutrophils, 7 minutes preincubation with compound, read-out: Inhibition of LTB4 Induced Neutrophil Degranulation IC50
Text: (§1) For use in both the "LTB4 receptor Binding Assay" and the "Human Neutrophil Degranulation Assay", neutrophils were purified from venous blood of normal human donors using standard techniques of dextran sedimentation, centrifugation on Histopaque® (density solution) and hypotonic lysis of erythrocytes (Boyum, A., Isolation of Leukocytes From Human Blood: Further Observations. Scand. J. Lab. Clin. Inves. 21 (Suppl. 97): 31, 1968). The purity of isolated neutrophils was ≥95%.
LTB4 induced neutrophil degranulation was determined by measuring the release of myeloperoxidase activity into the incubation medium. Neutrophils (3×10^6) in 1 ml HBSS solution was preincubated with cytochalasin B(5 μg) at 37° C. for 5 minutes, followed by preincubation with test compounds for 7 minutes. Neutrophils were then incubated for 2 to 20 minutes with either LTB4 (5×10^-8 M) or the chemotactic peptide f-met-leu-phe ([…]) to induce degranulation. Following incubation, samples were centrifuged and myleoperoxidase was extracted from the cell pellets by sonication in phosphate buffer containing 0.4% Triton X-100. Triton X-100 was also added to the supernatents to a concentration of 0.4%. The supernatants and the pellet extracts were then assayed spectrophotometrically for myeloperoxide activity by determining the rate of decomposition of H2 O2 with o-dianisidine as hydrogen donor as described by Renlund, D. G., MacFarlane, J. L., Christensen, R. D., Lynch, R. E., and Rothstein, G., A Quantitative And Sensitive Method For Measurement Of Myeloperoxidose, Clinical Research 28: 75A, 1980). Myeloperoxidase activity released into the supernatant was expressed as the percent of the average total activity (pellet plus supernatant).
The inhibition of LTB4 induced neutrophil degranulation was determined for representative compounds of this invention and their corresponding IC50 values were calculated (Table 1). The concentration of a compound which inhibited LTB4 induced neutrophil degranulation by 50% was determined to be its IC50 value.

LTB4 receptors = target: T1, LTB4 receptors (Homo sapiens, UniProt Q15722); test: LTB4 Receptor Binding Assay ((3H) LTB4, human neutrophils); conditions: 0.6 nM (3H) LTB4, human neutrophils; for pIC50: 0° C., 45 minutes, pH 7.4, read-out: Inhibition of Receptor Binding of LTB4 IC50
T1 construct: neutrophils were purified from venous blood of normal human donors; endogenous in cells; host or cells: neutrophils purified from venous blood of normal human donors (purity ≥95%)
Text: as §1
Neutrophils (4-6×10^6) in 1 ml of Hanks' balanced salt solution containing 10 mM Hepes Buffer (HBSS), pH 7.4 and 30 μM nordihydroguaiaretic acid were incubated with 0.6 nM (^3 H) LTB4 in the presence or absence of test compounds. The incubation was carried out at 0° C. for 45 minutes and terminated by adding 5 ml of ice-cold HBSS followed by rapid filtration of incubation mixture under vacuum through GF/C glass fiber filters. The filters were further washed with 10 ml HBSS and their radioactivity was determined. Specific binding was defined as the difference between total binding and nonspecific binding which was not displaced by 10^-7 M unlabeled LTB4.
The inhibition of specific binding was determined for representative compounds of this invention, and the corresponding IC50 values calculated (Table 1). An IC50 is the concentration of the compound of interest which will inhibit the binding of LTB4 by 50% of the LTB4 receptors. For example, for the compound of Example 7, the IC50 was determined to be approximately 5 μM.

T1 sequence (Q15722 whole entry): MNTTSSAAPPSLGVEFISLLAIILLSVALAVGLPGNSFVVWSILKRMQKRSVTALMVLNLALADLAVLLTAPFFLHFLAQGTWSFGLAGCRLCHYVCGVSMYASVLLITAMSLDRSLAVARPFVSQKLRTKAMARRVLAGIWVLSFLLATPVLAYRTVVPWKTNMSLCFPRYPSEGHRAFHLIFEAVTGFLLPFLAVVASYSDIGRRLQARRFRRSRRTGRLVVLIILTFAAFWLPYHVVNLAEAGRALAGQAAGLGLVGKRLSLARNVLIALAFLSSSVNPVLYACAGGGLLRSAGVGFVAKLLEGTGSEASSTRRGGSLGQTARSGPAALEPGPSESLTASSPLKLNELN

Compound	pIC50 [1]	pIC50 (LTB4 receptors)	inhibition at 10 µM (LTB4 receptors; at 10μM) [%]
CCCCC/C=C\CC(O)c1ccc(/C=C\[C@@H](O)CCCC(=O)O)cc1 (stereo partly drawn) [Example 7, 7[4-(1-hydroxy-3Z-nonenyl)phenyl]-5S-hydroxy-6Z-heptenoic acid, lithium salt]	6.15	~5.30 and 5.30	–
CCCCCCCCC(O)c1ccc(/C=C\C(O)CCCC(=O)O)cc1 (stereo not shown) [Example 21, 7-[4-(1-hydroxynonyl)phenyl]-5-hydroxy-6Z-heptenoic acid, lithium salt]	6.00	5.70	–
CCCCCCCCC(O)c1ccc(/C=C\C(O)CCCC(=O)O)s1 (stereo not shown) [Example 23, 7-[2-[5-(1-hydroxynonyl)]thienyl-5-hydroxy-6Z-heptenoic acid, lithium salt]	5.74	5.30	–
CCCCCCCCC(O)c1ccc(C#CC(O)CCCC(=O)O)s1 (stereo not shown) [Example 22, 7-[2-[5-(1-hydroxynonyl)]thienyl-5-hydroxy-6Z-heptynoic acid, lithium salt]	5.06	–	20
CCCCCCCCC(O)c1ccc(/C=C\C(O)CCCC(=O)OC)cc1 (stereo not shown) [Example 12, Methyl 7-[4-(1-hydroxynonyl)phenyl]-5-hydroxy-6Z-heptenoate]	6.19	6.00	–
